Test systems include A549 NSCLC; LOX IMVI melanoma; SF-539 CNS; UO-31 renal; SW-620 colon; NCI-H226 lung; KM12 colon; A498 renal; MDA-MB-435.
Holding throughout (assay): inhibition of tumour cell growth, NCI panel, 48 h

Molecules are shown by their SMILES. “And” between values parts separate entries of the source, which are not always exact repeats. Equal entries are not always repeated.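 Assay format: 96-well plates, 48-hour exposure. GI50 = concentration required for 50% inhibition of growth. TGI: total growth inhibition.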

As for `Cc1ccc(C)c(NC(=O)C(=O)CC(=O)C2CCOC2=O)c1` (centres undefined), the TGI in the assay with A549 NSCLC, with LOX IMVI melanoma, in the assay with SF-539 CNS, in the assay with UO-31 renal, in the assay on SW-620 colon and in the assay on NCI-H226 lung was more than 100 µM throughout. Besides, the TGI in the assay with KM12 colon and with A498 renal was more than 100 µM throughout.

Regarding `CC1[C@@H]2[C@@H](C=C3C4CCC5Cc6nc7c(nc6C[C@@]5(C)C4C[C@H](O)[C@]32CO)CC2CCC3C4=C[C@H]5O[C@@]6(O[C@@](C)(CO)C[C@@H]6O)C(C)[C@@]5(O)[C@]4(C)[C@@H](O)CC3[C@]2(C)C7)O[C@]12CCC(C)(C)O2` (some centres undefined), the GI50 in the assay with A549 NSCLC was 0.00602 µM; in the assay on LOX IMVI melanoma, 0.017 µM and 0.0071 µM; with SF-539 CNS, 0.00363 µM; in the assay on UO-31 renal it was 0.117 µM; in the assay on SW-620 colon it was 0.0079 µM; in the assay on NCI-H226 lung it was 0.00626 µM. Further, the GI50 in the assay with KM12 colon was 0.17 µM; with A498 renal, 0.00409 µM. The TGI in the assay with A549 NSCLC is 0.919 µM and > 3.65 µM; in the assay with LOX IMVI melanoma, more than 3.65 µM; in the assay with UO-31 renal it was 0.158 µM and 0.286 µM; in the assay on SW-620 colon it was 0.175 µM and 0.0892 µM; with NCI-H226 lung, 0.543 µM and > 3.65 µM; with KM12 colon, 0.611 µM and > 3.65 µM. Further, the TGI in the assay on A498 renal is 0.0841 µM and 0.165 µM.

`CCC(C)CN1C(=O)NC(C)(Cc2ccccc2)C1=O` (centres undefined): the TGI with A549 NSCLC, in the assay on LOX IMVI melanoma, in the assay on SF-539 CNS, in the assay on UO-31 renal, in the assay on SW-620 colon and in the assay on NCI-H226 lung was more than 100 µM throughout. The same compound registered a TGI in the assay with KM12 colon of more than 100 µM.

Turning to `N=C(c1ccccc1)N(c1ccccc1)c1ccccc1`, the TGI with A549 NSCLC, in the assay on LOX IMVI melanoma, in the assay on SF-539 CNS, in the assay with UO-31 renal, with SW-620 colon and with NCI-H226 lung was more than 100 µM in each case. Moreover, in the assay with KM12 colon, the TGI is more than 100 µM.

For `O=C1c2ccccc2C2(O)Nc3cc(O)ccc3C12O` (centres undefined), the TGI with A549 NSCLC, in the assay with LOX IMVI melanoma, in the assay on SF-539 CNS, with SW-620 colon, with NCI-H226 lung and in the assay with KM12 colon was more than 100 µM in each case. The compound also registered a TGI with A498 renal of more than 100 µM.

Turning to `COc1ccc(/C(=N/NC(N)=O)C2(O)C(=O)Nc3ccc([N+](=O)[O-])cc32)cc1` (centres undefined), the TGI in the assay on A549 NSCLC was more than 100 µM; in the assay with SF-539 CNS it was 31.3 µM; in the assay with UO-31 renal, 34.8 µM; in the assay on SW-620 colon it was 50.8 µM; with NCI-H226 lung it was more than 100 µM; in the assay with KM12 colon, 49.5 µM. The compound further registered a TGI in the assay on A498 renal of 87.5 µM.

As to `CC[P+](C)(Cc1ccccc1)c1ccccc1` (centres undefined), the TGI in the assay on A549 NSCLC, in the assay with LOX IMVI melanoma, with SF-539 CNS, with UO-31 renal, in the assay on SW-620 colon and in the assay with NCI-H226 lung was more than 100 µM in each case. The TGI with KM12 colon and in the assay on A498 renal was more than 100 µM throughout.

Take `C#CCC[C@@H]1O[C@@]1(C)CC/C=C(\C)CC/C=C/C=O`: the TGI is more than 100 µM in the assay on A549 NSCLC; 35.2 µM in the assay on LOX IMVI melanoma; 38.7 µM with SF-539 CNS; more than 100 µM with UO-31 renal; 51.4 µM with SW-620 colon; more than 100 µM with NCI-H226 lung. Besides, the TGI in the assay with KM12 colon was more than 100 µM.

With `C=CCC1OC(C)(C)Oc2ccc(OCOCCOC)cc21` (centres undefined), the TGI in the assay on A549 NSCLC, with LOX IMVI melanoma, in the assay with SF-539 CNS, in the assay on UO-31 renal, in the assay on SW-620 colon and with KM12 colon was more than 100 µM throughout. In the assay with A498 renal, the TGI was more than 100 µM.

Take `N#Cc1cccc(N2C(=O)c3c(c(-c4ccccc4)c(-c4ccc(Sc5ccc(-c6c(-c7ccccc7)c7c(c(-c8ccccc8)c6-c6ccccc6)C(=O)N(c6cccc(C#N)c6)C7=O)cc5)cc4)c(-c4ccccc4)c3-c3ccccc3)C2=O)c1`: the TGI in the assay with A549 NSCLC, in the assay on LOX IMVI melanoma, with SF-539 CNS, in the assay on UO-31 renal, in the assay on SW-620 colon and with KM12 colon was more than 100 µM throughout.

`CC1=C(C(=O)NCc2ccccc2)C(c2ccc(C3C(C(=O)NCc4ccccc4)=C(C)NC(C)=C3C(=O)NCc3ccccc3)cc2)C(C(=O)NCc2ccccc2)=C(C)N1`: the TGI in the assay with A549 NSCLC was 61.3 µM; with SF-539 CNS, 5.52 µM; in the assay with UO-31 renal it was 35.7 µM; in the assay with SW-620 colon it was 22.7 µM; with NCI-H226 lung it was 33.7 µM; with KM12 colon, 24.4 µM. In the assay with A498 renal, this compound displayed a TGI of 31.7 µM.

Regarding `Nc1nc(CCC(=O)Nc2cccc(C(F)(F)F)c2)cc(-c2cccc3ccccc23)n1`, the TGI in the assay with A549 NSCLC, in the assay on LOX IMVI melanoma, in the assay with SF-539 CNS, in the assay on UO-31 renal, in the assay with SW-620 colon and in the assay on NCI-H226 lung was more than 100 µM throughout. For the same compound, the TGI in the assay with KM12 colon and with A498 renal was more than 100 µM in each case.

Regarding `CC1CC2C3CC(F)C4=CC(=O)C=CC4(C)C3(F)C(O)CC2(C)C1(O)C(=O)COC(=O)C(C)(C)C` (centres undefined), the TGI in the assay on A549 NSCLC, with LOX IMVI melanoma, with SF-539 CNS, in the assay on UO-31 renal, in the assay with SW-620 colon and in the assay with NCI-H226 lung was more than 100 µM in each case. Moreover, in the assay on KM12 colon, the TGI is more than 100 µM.

For `COc1ccc(S(=O)(=O)NC(C)C(=O)O)cc1` (centres undefined), the TGI in the assay on A549 NSCLC, in the assay on LOX IMVI melanoma, with SF-539 CNS, in the assay on UO-31 renal, with SW-620 colon and in the assay on KM12 colon was more than 100 µM each time. In the assay on A498 renal, the TGI was more than 100 µM.

For the compound `CC(=O)N1CCN(C2=Nc3ccccc3CO2)C1=S`, the GI50 is more than 100 µM in the assay on A549 NSCLC; 81.4 µM in the assay with MDA-MB-435; 52.4 µM with LOX IMVI melanoma; more than 100 µM in the assay on SF-539 CNS; more than 100 µM in the assay with UO-31 renal; 92.5 µM in the assay on SW-620 colon. The GI50 in the assay on NCI-H226 lung and in the assay with KM12 colon was more than 100 µM in each case. The TGI in the assay on A549 NSCLC, in the assay on MDA-MB-435, in the assay on LOX IMVI melanoma, in the assay with SF-539 CNS, in the assay on UO-31 renal and with SW-620 colon was more than 100 µM throughout. In addition, the TGI in the assay on NCI-H226 lung and in the assay on KM12 colon was more than 100 µM throughout.

The values above are taken from PubChem BioAssay (NCI).
